# Measurements reported in US20260234141A1, “COMPOUNDS AND COMPOSITIONS USEFUL AS DEGRADERS OF MK2 KINASE” (Celgene Corporation, priority 2023, published 2026).
# Columns and labels:
# MK2 = molecular target: T1, MK2 (Homo sapiens, UniProt P49137); experiment: MK2 degradation assay in MK2 overexpressed HiBiT-tagged cell line; format: cell-based; settings: cells stably expressing HiBiT-tagged MK2 (overexpressed), overnight incubation, read-out: HiBiT MK2 OE EC50
# T1 construct: expressed in transfected cells
# Method: A compound was dispensed into a white 384-well tissue-culture treated plate using an acoustic liquid handler. Dilutions were based on a 25 μL assay volume in duplicate 10 point 3-fold serial dilutions starting with a 10 μM dose. Negative control wells containing only 0.2% DMSO were also included to calculate 100% signal. All wells were backfilled to a final DMSO concentration of 0.2% to ensure DMSO uniformity across wells. Cells stably expressing HiBiT-tagged protein of interest were then washed, trypsinized, and counted.
# These cells were then resuspended in fresh medium to give the proper concentration. This was done so that when cells were plated at a 25 μL seeding volume the assay would be conducted within the linear range from optimization of cell-based HiBiT assay. Following the above procedure, 25 μL of cells expressing HiBiT-tagged protein of interest were dispensed per well. Cells were then seeded into the 384-well plate that was pre-spotted with compounds. The resulting cells were incubated overnight at 37° C./5% CO2.
# The 384-well plates were then removed from the incubator and left at room temperature for 30 min. The Nano-Glo HiBiT Lytic Detection Reagent was prepared according to manufacturer's instructions. 25 μL of Nano-Glo HiBiT Lytic Detection Reagent were added per well of a 384-well plate. The resulting plates were incubates for 30 min at room temperature. Luminescence signal was then read using a plate reader.
# All luminescence values were normalized to the DMSO control wells. The average value of the DMSO control wells was set to equal 100% of the relative HiBiT-tagged target protein levels.
# The luminescence values were plotted using a graphing software. Compound concentration was plotted on the x-axis and the corresponding relative protein of interest levels on the y-axis. Graphing software was used to determine the EC50 value (the half-maximum effective concentration) of a compound for the degradation of the HiBiT-tagged substrate. The software used a four-parameter logistic model (sigmoidal dose-response model) (FIT=(A+{(B−A)/1+[(C/x)^D]})) where C was the inflection point (EC50), D was the […], and A and B were the low and high limits of the fit, respectively) to calculate the EC50. The Ymin was calculated by determining the lowest percentage of target protein remaining following compound treatment.
# [1] = molecular target: T2, p38a activated, mitogen-activated protein kinase-activated protein kinase 2 (MAPKAP-K2 or MK2) enzyme (Homo sapiens, UniProt P49137); experiment: MK2 OMNIA biochemical assay (AssayQuant continuous-read kinase assay); settings: [MK-2]=0.05 nM, [ATP]=100 μM, [AQT0425]=10 μM
# T2 construct: purchased Invitrogen PV3317
# Method: The protocol below describes a continuous-read kinase assay optimized to measure potency of compounds against p38a activated, mitogen-activated protein kinase-activated protein kinase 2 (MAPKAP-K2 or MK2) enzyme.
# A 1.25× stock solution of MK2 (PV3317, from Invitrogen) and a 5× stock solution of ATP and Sox conjugated peptide substrate, AQT0425 (CSKS-AQT0425B, from AssayQuant Technologies), were prepared in 1× kinase reaction buffer consisting of 50 mM HEPES, pH 7.5, 0.01% Brij-35, 0.55 mM EGTA, 10 mM MgCl2 and 1 mM DTT.
# 10 μL of the ATP and substrate solution mix was added to a Corning (3574) 384-well, white, non-binding surface microtiter plate containing […] of serially diluted test compounds prepared in DMSO. The reactions were started with the addition of 40 μL of the enzyme solution and monitored every 71 seconds for 240 min at λex 360/λem 485 in a Synergy H4 plate reader from BioTek at room temperature.
# The initial linear portions of the net progress curves were fit according to a linear equation to yield the slope and percentage of inhibition (% inhibition) at each compound concentration. The net progress curves obtained during the entirety of reactions were also fit according to an ascending single-exponential equation (Eq. 1) to yield Vobs values at each compound concentration. Plots of % Inhibition versus degrader concentrations were fit according to a dose-response equation (Eq. 2) to generate IC50 and Hill slope values while plots of Vobs versus degrader concentration were fit according to Equation 3 (Eq. 3) to generate apparent Kinact values using the GraphPad PRISM software.
# where F is the fluorescence intensity from the plate reader, V0 is a constant reflecting the relationship between the instrument readout and product concentration, t is time, e is Euler's number, and Vobs is the observed inactivation rate constant.
# where % Inhibition is percentage of inhibition, IC50 is half maximal inhibitory concentration, [I] is the degraders concentration, and n is the Hill slope.
# where kobs is the observed inactivation rate constant, Kinact is the apparent inactivation rate constant, KI is the apparent inhibition constant, and [I] is the degrader concentration.
# T1 sequence (P49137 whole entry): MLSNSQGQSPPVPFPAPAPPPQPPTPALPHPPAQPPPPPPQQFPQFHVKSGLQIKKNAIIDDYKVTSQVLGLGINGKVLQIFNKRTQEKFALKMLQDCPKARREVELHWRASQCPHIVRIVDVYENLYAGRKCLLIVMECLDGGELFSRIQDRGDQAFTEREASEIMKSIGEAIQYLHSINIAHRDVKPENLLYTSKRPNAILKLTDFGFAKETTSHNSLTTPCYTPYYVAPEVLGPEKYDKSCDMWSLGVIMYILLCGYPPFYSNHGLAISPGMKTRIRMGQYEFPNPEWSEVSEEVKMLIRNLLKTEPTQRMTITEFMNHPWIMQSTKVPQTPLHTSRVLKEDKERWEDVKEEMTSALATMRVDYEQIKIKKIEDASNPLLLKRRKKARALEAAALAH
# T2 sequence (P49137 whole entry): as above
Compound,DC50 (MK2) [nM],IC50 [1] [nM]
"O=C1CCC(c2ccc(N3CCN(C[C@H]4CC[C@H](NC(=O)c5ccc(-c6cc(-c7cc8c([nH]7)CCNC8=O)ccn6)c(F)c5)CC4)CC3)cc2)C(=O)N1 (stereo partly drawn) [Example 1.6, N-(trans-4-((4-(4-(2,6-Dioxopiperidin-3-yl)phenyl)piperazin-1-yl)methyl)cyclohexyl)-3-fluoro-4-(4-(4-oxo-4,5,6,7-tetrahydro-1H-pyrrolo[3,2-c]pyridin-2-yl)pyridin-2-yl)benzamide]",10 to 100,151 to 500
"Cn1nc(C2CCC(=O)NC2=O)c2cccc(N3CCN(CCN4CCN(c5ccc(-c6cc(-c7cc8c([nH]7)CCNC8=O)ccn6)c(F)c5)CC4)CC3)c21 (stereo not drawn) [Example 1.13, 3-(7-(4-(2-(4-(3-Fluoro-4-(4-(4-oxo-4,5,6,7-tetrahydro-1H-pyrrolo[3,2-c]pyridin-2-yl)pyridin-2-yl)phenyl)piperazin-1-yl)ethyl)piperazin-1-yl)-1-methyl-1H-indazol-3-yl)piperidine-2,6-dione]",< 10,501 to 1000
"O=C1CCC(c2cccc(N3CCN(CC[C@H]4CC[C@H](NC(=O)c5ccc(-c6cc(-c7cc8c([nH]7)CCNC8=O)ccn6)c(F)c5)CC4)CC3)c2)C(=O)N1 (stereo partly drawn) [Example 1.9, N-(trans-4-(2-(4-(3-(2,6-Dioxopiperidin-3-yl)phenyl)piperazin-1-yl)ethyl)cyclohexyl)-3-fluoro-4-(4-(4-oxo-4,5,6,7-tetrahydro-1H-pyrrolo[3,2-c]pyridin-2-yl)pyridin-2-yl)benzamide]",101 to 500,151 to 500
"O=C1CCC(c2ccc(N3CCN(CCN4CCN(c5cccc(-c6cc(-c7cc8c([nH]7)CCNC8=O)ccn6)c5)CC4)CC3)cc2)C(=O)N1 (stereo not drawn) [Example 1.12, 3-(4-(4-(2-(4-(3-(4-(4-Oxo-4,5,6,7-tetrahydro-1H-pyrrolo[3,2-c]pyridin-2-yl)pyridin-2-yl)phenyl)piperazin-1-yl)ethyl)piperazin-1-yl)phenyl)piperidine-2,6-dione]",> 500,151 to 500
"Cn1nc(C2CCC(=O)NC2=O)c2ccc(N3CCN(CC[C@H]4CC[C@H](NC(=O)c5ccc(-c6cc(-c7cc8c([nH]7)CCNC8=O)ccn6)c(F)c5)CC4)CC3)cc21 (stereo partly drawn) [Example 1.8, N-(trans-4-(2-(4-(3-(2,6-Dioxopiperidin-3-yl)-1-methyl-1H-indazol-6-yl)piperazin-1-yl)ethyl)cyclohexyl)-3-fluoro-4-(4-(4-oxo-4,5,6,7-tetrahydro-1H-pyrrolo[3,2-c]pyridin-2-yl)pyridin-2-yl)benzamide]",< 10,501 to 1000
"Cn1nc(C2CCC(=O)NC2=O)c2ccc(N3CCN(C[C@H]4CC[C@H](NC(=O)c5ccc(-c6cc(-c7cc8c([nH]7)CCNC8=O)ccn6)c(F)c5)CC4)CC3)cc21 (stereo partly drawn) [Example 1.5, N-[trans-4-[[4-[3-(2,6-dioxo-3-piperidyl)-1-methyl-indazol-6-yl]piperazin-1-yl]methyl]cyclohexyl]-3-fluoro-4-[4-(4-oxo-1,5,6,7-tetrahydropyrrolo[3,2-c]pyridin-2-yl)-2-pyridyl]benzamide]",< 10,< 150
"O=C1CCC(c2cccc(N3CCN(C[C@H]4CC[C@H](NC(=O)c5ccc(-c6cc(-c7cc8c([nH]7)CCNC8=O)ccn6)c(F)c5)CC4)CC3)c2)C(=O)N1 (stereo partly drawn) [Example 1.7, N-(trans-4-((4-(3-(2,6-Dioxopiperidin-3-yl)phenyl)piperazin-1-yl)methyl)cyclohexyl)-3-fluoro-4-(4-(4-oxo-4,5,6,7-tetrahydro-1H-pyrrolo[3,2-c]pyridin-2-yl)pyridin-2-yl)benzamide]",10 to 100,151 to 500
"Cn1nc(C2CCC(=O)NC2=O)c2ccc(N3CCN(CCN4CCN(c5cccc(-c6cc(-c7cc8c([nH]7)CCNC8=O)ccn6)c5)CC4)CC3)cc21 (stereo not drawn) [Example 1.11, 3-(1-Methyl-6-(4-(2-(4-(3-(4-(4-oxo-4,5,6,7-tetrahydro-1H-pyrrolo[3,2-c]pyridin-2-yl)pyridin-2-yl)phenyl)piperazin-1-yl)ethyl)piperazin-1-yl)-1H-indazol-3-yl)piperidine-2,6-dione]",101 to 500,< 150
"O=C1CCC(c2ccc(N3CCN(CC[C@H]4CC[C@H](NC(=O)c5ccc(-c6cc(-c7cc8c([nH]7)CCNC8=O)ccn6)c(F)c5)CC4)CC3)cc2)C(=O)N1 (stereo partly drawn) [Example 1.10, N-(trans-4-(2-(4-(4-(2,6-Dioxopiperidin-3-yl)phenyl)piperazin-1-yl)ethyl)cyclohexyl)-3-fluoro-4-(4-(4-oxo-4,5,6,7-tetrahydro-1H-pyrrolo[3,2-c]pyridin-2-yl)pyridin-2-yl)benzamide]",10 to 100,501 to 1000
